“And” between values parts separate entries of the source, which are not always exact repeats. Equal entries are not always repeated. Structures can show the parent of a compound that is named as a salt. Where two headings read alike, the source gives them in different places.

Test [1] has as its system hyperacute graft rejection. Description: Guinea pig-to-rat cardiac transplant (discordant xenograft). In kind it is in vivo. As to conditions: 28 mg/rat intravenous bolus; for Graft survival time: individual animals. Here is the method: The effects of compounds 68 and 44a on hyperacute graft rejection were tested in a model of discordant xenografting. The methods were the same as described previously (Prewitt et al., 1991, Transplantation 52:868-873) except that the test compounds were substituted for the active agent (sCR1) of the earlier study. As indicated in the earlier study, male Lewis rats, 12-16 weeks of age, and male Hartley guinea pigs, 4-10 weeks of age (Charles River, Wilmington, Mass.) served as cardiac xenograft recipients and donors, respectively. Under Halothane anesthesia, heterotopic cardiac xenotransplantation was performed by a modification of the microvascular technique of Ono and Lindsey, 1990, J. Thorac. Cardiovas.
Cardiac xenografts were evaluated visually over the first 30 minutes following reperfusion and then, following abdominal closure, every 10 minutes by palpation until rejection. Rejection was defined as total cessation of cardiac xenograft contraction and was confirmed by direct visualization and histological examination. […] Control animals received similar volumes of PBS. Three (n=3) control animals were tested concurrent with the animals receiving compound 68; data from historic controls (n=13) subjected to the same procedure and previously reported (Pruitt et al., 1991, Transplantation 52:868-873) are also included for comparison. Table XV includes the xenograft survival times (minutes) for individual animals and the means and standard errors of the mean (SEM) for the various groups.

The test system of another test is human complement. Description: Inhibition of complement-mediated hemolysis, human serum, sensitized sheep erythrocytes. The test is classed as biochemical. The method, then:
The ability to inhibit complement was also tested by assaying for inhibition of complement-mediated red cell lysis (hemolysis). The inhibition of hemolysis was determined as a function of compound concentration. The compounds to be tested were diluted in 0.1M Hepes buffer (0.15N NaCl, pH 7.4), and 50 μl were added to each well of a V-bottom microtiter plate. Human serum, used as the complement source, was diluted 1 to 500 in Hepes buffer, and 50 μl were added to each well. Next, commercially available sheep erythrocytes with anti-sheep antibody (Diamedix Cat. No. 789-001) were used as received and added at 100 μl/well to initiate the complement pathway leading to hemolysis. The plate was incubated for 60 minutes at 37° C. and then centrifuged at 500×g for 10 minutes. The supernatants were removed and placed in a flat-bottom microtiter plate. The extent of hemolysis was measured as a function of the sample absorbance at 410 nm. The maximal absorbance (corresponding to maximal hemolysis), Amax, was obtained from the absorbance value of an erythrocyte sample containing only human serum, AS, less the absorbance of a sample containing only the red cells, A0. Thus, Amax =AS -A0. The difference between the absorbance of an erythrocyte sample containing both human serum and inhibitive compound, and the absorbance of a cell sample containing inhibitive compound only, was defined as Asample. The inhibition, IH, was expressed as the fraction (Amax -Asample)/Amax, and IH50 was defined as the concentration of inhibitive compound required to produce a value of IH=1/2.
The 4 substituted spirobenzofuran compounds of example 7 and the disubstituted spirobenzofuran compounds of example 8 were tested for their capacity to inhibit complement-mediated lysis of sheep red blood cells (SRBC) as described in Section 6.6.2 supra with the modification that the human serum used as the complement source was diluted to 1 to 100 in Hepes buffer, instead of […]. The results of the hemolysis assays are shown in FIG. 8 and Tables XI and XII.

A further test has as its target T1, factor I (Homo sapiens, UniProt P05156).
T1 construct: purchased Cytotech, San Diego, Calif
T1 sequence (P05156 340-583 limits assumed): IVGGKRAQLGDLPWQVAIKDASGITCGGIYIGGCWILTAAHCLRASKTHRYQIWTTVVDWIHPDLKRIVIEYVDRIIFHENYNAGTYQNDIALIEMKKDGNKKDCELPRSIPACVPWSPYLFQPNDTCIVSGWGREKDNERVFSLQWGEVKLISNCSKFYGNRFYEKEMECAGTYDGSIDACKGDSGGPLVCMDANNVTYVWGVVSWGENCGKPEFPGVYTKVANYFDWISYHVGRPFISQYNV
The experiment in a line: Inhibition of C3b proteolysis by factor I (SDS-PAGE densitometry). The settings on record: sCR1 8 nM as cofactor, C3b 1.2 μM, factor I 0.1 μM, 60 min 37° C.; read-out: C3b cleavage by Factor I, concentration yielding 50% inhibition. In kind it is biochemical. The text has this:
The reactions were stopped by the addition of reducing SDS-PAGE sample buffer (Laemmli, 1970, Nature, 227:680-685) subjected to electrophoresis on 4-20% polyacrylamide gradient gels, visualized with Coomassie Blue stain, and quantitated by densitometry. Controls lacking factor I and controls with factor I but lacking test compounds were included. Results are reported as the concentration of test compound which inhibited approximately fifty percent (50%) of the C3b a-chain degradation, IC50.

The test system of the next test is rat complement. The experiment in a line: Inhibition of complement-mediated hemolysis, rat serum as complement source. The test is classed as biochemical. The settings on record: Table XIII; read-out: IH50 for Rat Complement.
Test [2] relates to alternative complement pathway. Description: Inhibition of alternative pathway mediated hemolysis, rabbit erythrocytes, human serum. The test is classed as biochemical. As to conditions: Table XIV, human serum 1 in 24, read-out: Alternative pathway AH50. Here is the method:
The capacity of the substituted dihydrobenzofurans to inhibit the alternative complement pathway was assessed using the modified method of Platts-Mills and Ishizaka, 1974, J. Immunol., 113:348-358. Essentially, rabbit erythrocytes were lysed using human serum as complement in gelatin veronal buffer (GVB, Sigma, St. Louis, Mo.) with added EGTA (ethylene glycol-bis[β-aminoethyl ether]N,N,N^1,N^1 -tetraacetic acid) and Mg^2+ to 8 mM and 2 mM, respectively. Rabbit erythrocytes (4.5×10^6 cells/ml), human serum (1 in 24 dilution), and the compounds to be tested were incubated one hour at 37° C. in a V-bottom microtiter plate, cells pelleted by centrifugation, the supernatants transferred to a flat-bottom microtiter plate, and the absorbance at 410 nm determined. Samples were paired with identical controls lacking human serum (complement-independent lysis). Both samples and controls were run in triplicate. Control values were subtracted from sample values and the fractional inhibition was determined relative to the uninhibited (no added compound) sample. Results are reported as the concentration of compound yielding fifty per cent (50%) inhibition, AH50. The AH50 values for several of the compounds are included along with the results of other in vitro assays in Table XIV.

The subject of a further test is C5a production. Description: Inhibition of C5a production in human serum (aggregated IgG, RIA). The settings on record: concentration inhibiting C5a production 50% relative to control. The test is classed as biochemical. The method, then:
(§1) The ability to inhibit complement was tested by assaying for specific inhibition of C3a and C5a production. For all experiments, a single human serum pool, to be used as a source of complement, was aliquoted and stored frozen at -70° C. Human IgG was heat-aggregated, aliquoted, and stored frozen at -70° C. For each experiment, serum aliquots were equilibrated at 37° C. with varying concentrations of the compounds tested. The classical complement pathway was initiated by the addition of aggregated human IgG. Control samples containing no IgG were always included. After a fixed reaction time of 10 minutes (determined in an earlier time-course study to provide a convenient time interval during which the production of C5a or C3a is nearly complete, i.e., greater than 90%), the levels of the released complement peptides (C5a or C3a) were determined by radioimmunoassay using commercially available radioimmunoassay (RIA) kits (C5a RIA, UpJohn Cat. No. 3250-02; C3a RIA, UpJohn Cat. No. 3245-01; C5a RIA, Amersham Cat. No. RPA.520; C3a RIA, Amersham RPA.518).
(§2) Since a competitive immunoassay was used, complement peptide (C5a and C3a) concentrations varied inversely with the counts. The Counts Bound (CB) for a sample was defined as the total counts (in counts per minute, cpm) measured in the pellet minus the counts measured in a nonspecific binding (NSB) control. The NSB control was a sample containing only tracer peptide (^125 I-labelled) and second precipitating antiserum; it contained no C5a- or C3a-specific antiserum.
(§3) The y-axis in FIG. 2 represents the fraction inhibition. The fraction inhibition is equal to the Counts Bound (CB) for a "sample," less the CB in the "sample with no added compound," divided by the CB for the "no IgG control" less the CB in the "sample with no added compound." [formula]
(§4) FIG. 2 is representative of the data plots obtained from the assays described above.

In test [3] the test system is human peripheral blood lymphocytes (PBL). Description: Inhibition of proliferation of peripheral blood lymphocytes, 3H-thymidine incorporation. In kind it is cell-based. The settings on record: Lymphocyte, Table IX, 72 h. Here is the method: The proliferation of human peripheral blood lymphocytes (PBL) in response to phytohemagglutinin (PHA, Well-come) or anti-CD3 monoclonal antibody (OKT-3, Ortho) was assessed by the incorporation of ^3 H-thymidine. Compound 11a was diluted in culture media to the desired concentrations, human PBL were added to a final concentration of 10^6 cells/ml, and then either PHA (Wellcome) or anti-CD3 (OKT3, Ortho) antibody (final concentration, […]) was added to initiate proliferation. The final volume per sample was 100 μl. The cells were incubated for 72 hours after stimulation, pulsed with 1 μCi ^3 H-thymidine per sample for 4 hours, harvested, and counted in a scintillation counter. […] Because cell viability was unaffected by the presence of 11a (see supra), the inhibition apparently was not due to cytotoxic effects.
(In general: Incorporation of labelled thymidine or its analogues reports DNA synthesis.)

The test system of test [4] is guinea pig serum complement. As to conditions: sensitized sheep erythrocytes, read-out: concentration reducing hemolysis 50%; cited from earlier work.
The next test concerns C3a production. Description: Inhibition of C3a production in human serum (aggregated IgG, RIA). In kind it is biochemical. The settings on record: at a concentration of about 8.5 mM. Here is the method:
as §1, §2, §3, §4

[5] abbreviates: Table XI, human serum diluted 1 to 100, read-out: IH50 Mean.
[6] abbreviates: Table XII, human serum diluted 1 to 100, read-out: IH50 Mean.
[7] abbreviates: Table XIII, read-out: IH50 for Human Complement.
The mark [8] stands for this setting: Table XIV, read-out: Classical pathway IH50.

For `COc1cc(C(=O)O)cc2c1CC1(CCCCC1)O2` [Compound 44a, 6-CARBOXYL-4-METHOXYSPIRO[BENZOFURAN-2(3H)-CYCLOHEXANE] SODIUM SALT], the “Graft survival time Mean ± SEM” value in test [1] stood at 8 min. Besides, the Graft survival time in [1] (SODIUM SALT) is 7 min and 9 min. Also, the IC50 is 530 µM in the test on human complement (setting [5]); 532 µM in the test on human complement (setting [6]); 538 µM in the test with human complement (setting [7]); 530 µM in the test on human complement (setting [8]); 2740 µM at factor I; 17300 µM with rat complement. For the same molecule, in test [2], the IC50 is above 5030 µM.

As to `CC1CCC2C(C)(C)C(O)C(O)CC2(C)C12Cc1c(O)cc(C(=O)O)c(C=O)c1O2` (stereo not shown) [K76COOH, reference compound], the IC50 in the test with human complement (setting [5]) is 570 µM; in the test with human complement (setting [6]) it was 570 µM; in the test with human complement (setting [8]) it was 570 µM; on factor I it was 110 µM; in test [2] it was 850 µM.

With “sCR1: soluble human recombinant complement receptor type 1, used as a positive control in the in vitro assays”, the IC50 in the test on human complement (setting [7]) amounted to 0.0009 µM; in the test on rat complement, 0.0015 µM.

On to `COc1cc(C(=O)O)c(C=O)c2c1CC1(CCCCC1)O2` [Compound 68, 6-carboxy-7-formyl-4-methoxyspiro[benzofuran-2(3H)-cyclohexane]], for which the “Graft survival time Mean ± SEM” value in test [1] was 142 ± 76 min. Also, the “graft survival relative to controls” value in test [1] is “prolonged graft survival times in 2 of the 3 animals”. For the same molecule, the Graft survival time in test [1] is 7 min and 150 min and 270 min. In the test on human complement, the “effectiveness in inhibiting complement-mediated hemolysis compared with K76COOH” value is “more effective”. Moreover, the IC50 is 164 µM in the test on human complement (setting [5]); 100 µM and 164 µM with human complement (setting [7]); 160 µM in the test on human complement (setting [8]); 150 µM at factor I; 1360 µM in test [2].

In the case of `CC1CCC2C(C)(C)C(O)C(O)CC2(C)C12Cc1c(O)cc(C(=O)O)c(C=O)c1O2` (stereo not shown) [K-76 COONa, reference compound], the IC50 in the test on C5a production was 3000 µM; in the test with human complement (Table VII, human serum, read-out: IHO50) it was 570 µM; in [3] (PHA stimulation, read-out: IP50 PHA-stimulated PBL), 500 µM; in test [3] (anti-CD3 (OKT-3) stimulation, read-out: IP50 OKT-3-stimulated PBL) it was 500 µM; in [4], 341 µM. Also, in the test on C3a production, the “inhibition of C3a production” value is “Only marginal inhibition”.

The values above are taken from patent publication US5808109A, “Compounds that inhibit complement and/or suppress immune activity” (T Cell Sciences, Inc., priority 1995, dated 1998).
